This experiment has as its system MDA-MB-468 breast. Nature of the experiment: NCI-60 cell line screen, 48 h.

Molecules are shown by their SMILES. Where “and” joins values, the source holds several entries; their conditions need not be identical. Identical values can stand only once.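 Dose response: 5 concentrations. Exposure: 48 h. Format: 96-well plates. Endpoint: linear interpolation; highest concentration if not reached. At the GI50, growth is halved. TGI is the concentration that stops growth completely.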 Where only a bound is given, the exact number is not on record here.

For the compound `CN[C@@H](C)C(=O)N[C@H]1CN(C(=O)CC(C)C)CC[C@H]2CC[C@@H](C(=O)NC(c3ccccc3)c3ccccc3)N2C1=O`, the GI50 was 39200 nM and the TGI is above 100 µM. With `COc1ccccc1/C=C/C(=O)c1c(O)cc2occc2c1OC`, the GI50 was 10300 nM and the TGI was 45.5 µM. For `COc1ccccc1-c1cc(/C=C2\C(=O)Nc3ncc(Br)cc32)cc(Br)c1O`, in that order: 7400 nM and above 25 µM. `COC(=O)[C@H]1[C@@H](O)[C@@]2(O)c3c(OC)cc(O[C@@H]4O[C@@H]([C@H](O)CO)CO[C@H]4OC)cc3O[C@@]2(c2ccc(OC)cc2)[C@@H]1c1ccccc1`: the GI50 is 2.93 nM and the TGI was 0.0112 µM. The matching figures for `Cc1ccc2c(c1)C(C)Cc1c(ncnc1-n1cnc3cc(C)ccc31)N2C` (stereo unspecified): 41.4 nM and 19 µM. On to `O=C1/C=C/[C@@H](O)[C@@H]2C[C@@H](O)C[C@H]2/C=C/CCC[C@H](CCc2ccc(C(F)(F)F)cc2)O1`, for which the GI50 was 28.1 nM and the TGI was 0.0829 µM. The matching figures for `Cc1ccc(S(=O)(=O)Oc2ccc([N+](=O)[O-])cc2[N+](=O)[O-])cc1`: 13200 nM and 28.4 µM. For `CCCCCCCCCCCCNC(=O)[C@H]1CSC(c2cc3ccccc3s2)N1` (stereo partly specified), the GI50 was 1090 nM and the TGI is 4.11 µM.

Regarding `N#Cc1nc(-c2ccccc2)oc1S(=O)(=O)N1CCCCC1`, the GI50 is 10200 nM and the TGI came out at 28.5 µM. Consider `Cc1cccc(-c2nn3c(c2-c2ccnc4ccc(C(N)=O)cc24)CCC3)n1`, for which the GI50 is above 100000 nM and the TGI was above 100 µM. For `Cc1cc(C(=O)Nc2nc3cccc(Cl)c3n2[C@@H]2CCCCN(C(=O)/C=C/CN(C)C)C2)ccn1`, the GI50 is 102 nM and the TGI worked out at 1.27 µM. The matching figures for `CCN(CC)CCCC(C)Nc1cc(-c2ccc(C(F)(F)F)cc2)c(C#N)c2nc3ccccc3n12` (stereo unspecified): 1750 nM and 3.35 µM. Take `COc1cc(-c2nc(NC(C)=O)sc2-c2ccnc(NCCNS(=O)(=O)c3ccccc3)n2)ccc1Cl`: the GI50 is 2560 nM and the TGI amounted to 9.61 µM. For `C[C@@H](N)C1CCC(C(=O)Nc2ccncc2)CC1` (stereo partly specified), in that order: above 100000 nM and above 100 µM. In the case of `O=C(c1ccc(OCCN2CCCCC2)cc1)c1c(-c2ccc(O)cc2)sc2cc(O)ccc12`, the GI50 was 3040 nM and 3130 nM; the TGI is 15.8 µM and 12.2 µM. Regarding `C/C1=C/C(=O)O[C@@H]2C[C@@H](CC[C@H](C)/C=C\C=C\CC1)O[C@@](O)([C@@H]1CSC(=O)N1CO)C2`, the GI50 is 24.3 nM and the TGI is 0.0765 µM. The matching figures for `Nc1ccccc1SC(CC(=O)c1ccccc1)c1ccc([N+](=O)[O-])cc1` (stereo unspecified): 14400 nM and 31 µM.

As to `O=C1OC2C(O)COC2(O)C1(O)C(C[N+](=O)[O-])c1ccc(Cl)cc1` (stereo unspecified), the GI50 was 16900 nM and the TGI stood at 44 µM. For `O=C(CCCCCCCn1cc(-c2cccnc2)nn1)Nc1ccccc1-c1ccccc1`, in that order: 4740 nM and above 51.6 µM. With `Cc1ncc(C(=O)Nc2ccc(CN3CCN(C)CC3)c(C(F)(F)F)c2)cc1C#Cc1cnc(N)c2cnccc12`, the GI50 was 169 nM and the TGI is 1.69 µM. Take `CCNCCC1(CC)C(=O)NC(=O)NC1=O`: the GI50 was above 100000 nM and the TGI is above 100 µM.

As for `NC(=O)C1c2ccccc2C=Cc2ccccc21`, the GI50 was 78600 nM and the TGI was above 100 µM. In the case of `CCC(CC)n1c(=O)c(SC2=NC3C(NN2)N(CC)C(=O)N3CC)c(C(=O)O)c2ccccc21` (stereo unspecified), the GI50 was 920 nM and the TGI amounted to 27.8 µM. Take `CC(C)CC1C(=O)N2CCC[C@H]2C2(O)O[C@](NC(=O)C3C=C4c5cccc6[nH]c(Br)c(c56)C[C@H]4N(C)C3)(C(C)C)C(=O)N12` (stereo partly specified): the GI50 was 3090 nM and the TGI came to 39.3 µM. For `CNC(=O)c1c(NC(=O)c2ccc(C(F)(F)F)cc2)sc2c1CCC(=O)C2`, in that order: 924 nM and 3.8 µM. The matching figures for `NC(=NCCCC1(c2ccccc2)CCCC1)Nc1ccc(Cl)cc1`: 1650 nM and 3.25 µM. For `O=C1/C(=C\c2ccc(F)cc2)CN(C(=O)c2ccc([N+](=O)[O-])cc2)C/C1=C\c1ccc(F)cc1`, in that order: 1380 nM and 3.68 µM. On to `O=Nc1ccc(O)c2ccccc12`, for which the GI50 is 5850 nM and the TGI was 27.4 µM. The matching figures for `CC(C)CCSC1=CC(=O)c2ccccc2C1=O`: 430 nM and 2.19 µM.

For `C=C(C)[C@@H]1CC[C@]2(C(N)=O)CC[C@]3(C)[C@H](CC[C@@H]4[C@@]5(C)CC[C@H](O)C(C)(C)[C@@H]5CC[C@]43C)[C@@H]12`, the GI50 was 3200 nM and the TGI was 11.9 µM. On to `O=C1Oc2ccccc2C(=O)/C1=C/N1C(=O)/C(=C/c2ccc3c(c2)OCO3)SC1=S`, for which the GI50 is 12100 nM and the TGI is 42 µM. `COc1cccc(Cn2c(-c3nonc3N)nc3ccccc32)c1`: the GI50 is 312 nM.

For the compound `CN1CCC(CNc2ccc3ncc(-c4cccc(OC(F)(F)F)c4)n3n2)CC1`, the GI50 was 1240 nM and 1110 nM; the TGI is 2.74 µM and 3.28 µM. Consider `COC(=O)[C@H]1C(=O)[C@@]2(C)[C@H]([C@H](OC(=O)c3ccccc3)[C@]3(O)C[C@H](OC(=O)[C@H](O)[C@@H](NC(=O)c4ccc(F)cc4)c4ccccc4)C(C)=C1C3(C)C)[C@]1(OC(C)=O)CO[C@@H]1C[C@@H]2O`, for which the GI50 is 8.74 nM and the TGI amounted to 6.46 µM. Take `COc1ccc(-c2nsc3c2NC(=O)CC3c2ccc(F)cc2)cc1` (stereo unspecified): the GI50 was 2180 nM and the TGI was above 30 µM. On to `O=C1CC2(CCOCC2)Oc2ncccc21`, for which the GI50 was 3230 nM and the TGI was determined as 15.3 µM. The matching figures for `COc1ccc(CCN2CCCN3C2=Nc2ccccc2S3(=O)=O)cc1`: 312 nM and above 100 µM. On to `O=C(N/N=C/c1ccccc1O)C(O)(c1ccccc1)c1ccccc1`, for which the GI50 is 4620 nM and the TGI was above 100 µM. Turning to `CCN1C(=O)N(CC)C2C1NN=c1s/c(=C\c3ccccc3F)c(=O)n12` (stereo unspecified), the GI50 is 27 nM and the TGI was above 48.1 µM.

In the case of `Cn1cc(-c2csc(-c3cn(C)c4ccc(Br)cc34)n2)c2cnccc21`, the GI50 is 1790 nM and the TGI worked out at 3.46 µM.

As for `COc1cc2c(F)nccc2cc1C(=O)N[C@@H](c1ccc(F)c(Cl)c1)[C@@H]1C[C@@H](O)CN1`, the GI50 is 52.7 nM and the TGI amounted to 2.33 µM.

The values above are taken from PubChem BioAssay (NCI).
